From ChEMBL document CHEMBL2331268, “The interaction of imidazole-, imidazolium-, and tetrazolium-containing compounds with DNA” (Bioorg Med Chem Lett, 2013)
Active and inactive are the calls of the source. The calls are words filed in the database; no cut-off is given here.

Test system: Salmonidae
Assay: Displacement of SYBR green I from salmon testes DNA assessed as compound treated with SYBR green I followed by DNA added relative to control

Activity | Structure (SMILES)
Active | c1cn(CCCCCCCCCCCCCCCCCCn2ccnc2)cn1
Active | C[n+]1ccn(CCCCCCCCCCCCCCCCn2cc[n+](C)c2)c1

Test system: Salmonidae
Assay: Displacement of SYBR green I from salmon testes DNA assessed as SYBR green I treated with DNA followed by compound added relative to control

Activity | Structure (SMILES)
Active | c1cn(CCCCCCCCCCCCCCCCn2ccnc2)cn1
Active | C[n+]1ccn(CCCCCCCCCCCCCCCn2cc[n+](C)c2)c1
Active | C[n+]1ccn(CCCCCCCCCCCCCCCCn2cc[n+](C)c2)c1

Molecular target: not listed separately
Assay: Displacement of SYBR green I from salmon testes DNA assessed as compound treated with DNA followed by SYBR green I added relative to control
Set-up: species or system Salmonidae

Structure (SMILES) | IC50
c1cn(CCCCCCCCCCCCCCCCn2ccnc2)cn1 | 52 µM
c1ccc(-c2nn(-c3ccccc3)[n+](-c3ccccc3)n2)cc1 [TETRAZOLIUM RED] | > 2500 µM
c1cn(CCCCCCCCCCCCCCCCCCn2ccnc2)cn1 | 58 µM
O=[N+]([O-])c1ccc(-n2nc(-c3ccccc3)n[n+]2-c2ccc(I)cc2)cc1 [IODONITROTETRAZOLIUM CHLORIDE] | > 2500 µM
CC[n+]1ccn(CCCCCCCCCCCCn2cc[n+](CC)c2)c1 | > 2500 µM
O=[N+]([O-])c1ccc(C[n+]2ccn(-c3ccc(-c4ccc(-n5cc[n+](Cc6ccc([N+](=O)[O-])cc6)c5)cc4)cc3)c2)cc1 | 0.4 µM
c1cn(CCCCCCCCCCCCCCCCCCCCn2ccnc2)cn1 | > 2500 µM
C[n+]1ccn(CCCCCCCCCCCCCCCCCCn2cc[n+](C)c2)c1 | 7.4 µM
C[n+]1ccn(CCCCCCCCCCCCCCCn2cc[n+](C)c2)c1 | > 2500 µM
C[n+]1ccn(CCCCCCCCCCCCn2cc[n+](C)c2)c1 | > 2500 µM
C[n+]1ccn(CCCCCCCCCCCCCCCCn2cc[n+](C)c2)c1 | 30 µM
COc1cc(-c2ccc(-n3nc(-c4ccccc4)n[n+]3-c3ccccc3)c(OC)c2)ccc1-n1nc(-c2ccccc2)n[n+]1-c1ccccc1 [TETRAZOLIUM BLUE CHLORIDE] | > 2500 µM
COc1cc(-c2ccc(-n3nc(-c4ccc([N+](=O)[O-])cc4)n[n+]3-c3ccc([N+](=O)[O-])cc3)c(OC)c2)ccc1-n1nc(-c2ccc([N+](=O)[O-])cc2)n[n+]1-c1ccc([N+](=O)[O-])cc1 | 34 µM
c1ccc(-c2nn(-c3ccccc3)[n+](-c3ccc(-c4ccc(-[n+]5nc(-c6ccccc6)nn5-c5ccccc5)cc4)cc3)n2)cc1 [NEOTETRAZOLIUM CHLORIDE] | 66 µM
CCC[n+]1ccn(CCCCCCCCCCCCn2cc[n+](CCC)c2)c1 | 109 µM
O=[N+]([O-])c1ccc(Cn2cc[n+](Cc3ccc([N+](=O)[O-])cc3)c2)cc1 | 0.3 µM
C[n+]1ccn(CCCCCCCCCCCn2cc[n+](C)c2)c1 | > 2500 µM
C[n+]1ccn(CCCOc2ccc(OCCCn3cc[n+](C)c3)cc2)c1 | > 2500 µM
C[n+]1ccn(CCCCn2cc[n+](C)c2)c1 | > 2500 µM
COc1cc(-c2ccc(-[n+]3nc(-c4ccccc4)nn3-c3ccc([N+](=O)[O-])cc3)c(OC)c2)ccc1-[n+]1nc(-c2ccccc2)nn1-c1ccc([N+](=O)[O-])cc1 [NITROBLUE TETRAZOLIUM CHLORIDE] | 360 µM
C[n+]1ccn(-c2ccc(-n3cc[n+](C)c3)cc2)c1 | > 2500 µM
C[n+]1ccn(CCCCCCCCn2cc[n+](C)c2)c1 | > 2500 µM
C[n+]1ccn(CCCCCCn2cc[n+](C)c2)c1 | > 2500 µM
C[n+]1ccn(CCCCCCCCCCCCCn2cc[n+](C)c2)c1 | 25.2 µM
C[n+]1ccn(CCCCCCCCCCn2cc[n+](C)c2)c1 | > 2500 µM
C[n+]1ccn(CCCCCCCCCCCCCCn2cc[n+](C)c2)c1 | 1210 µM
C[n+]1ccn(CCCCCCCCCCCCCCCCCCCCn2cc[n+](C)c2)c1 | 8 µM

Now from value to molecule:

IC50 | Structure (SMILES)
> 2500 µM | Clc1ccccc1Cn1cc[n+](Cc2ccccc2Cl)c1
> 2500 µM | Brc1ccc(Cn2cc[n+](Cc3ccc(Br)cc3)c2)cc1
> 2500 µM | c1cn(CCCCCCCCCCCCCCCn2ccnc2)cn1
> 2500 µM | Brc1ccc(C[n+]2ccn(Cc3ccccc3)c2)cc1
> 2500 µM | c1cn(-c2ccc(-n3ccnc3)cc2)cn1
> 2500 µM | c1cn(CCCCCCCCn2ccnc2)cn1
186 µM | c1cn(CCCCCCCCCCCCCn2ccnc2)cn1
423 µM | C[n+]1ccn(-c2ccc(-c3ccc(-n4cc[n+](C)c4)cc3)cc2)c1
> 2500 µM | c1cn(CCCCCCCCCCCCCCn2ccnc2)cn1
> 2500 µM | c1cn(CCCCCCn2ccnc2)cn1
> 2500 µM | c1cn(CCCCCCCCCCCCn2ccnc2)cn1
> 2500 µM | c1ccc2cc(Cn3cc[n+](Cc4ccc5ccccc5c4)c3)ccc2c1
> 2500 µM | Clc1ccc(Cn2cc[n+](Cc3ccc(Cl)cc3)c2)cc1
> 2500 µM | c1cn(CCCCn2ccnc2)cn1
> 2500 µM | Ic1ccc(Cn2cc[n+](Cc3ccc(I)cc3)c2)cc1
370 µM | c1ccc(C[n+]2ccn(-c3ccc(-c4ccc(-n5cc[n+](Cc6ccccc6)c5)cc4)cc3)c2)cc1
> 2500 µM | c1cn(-c2ccc(-c3ccc(-n4ccnc4)cc3)cc2)cn1
> 2500 µM | C[n+]1ccn(Cc2ccc(-c3ccc(Cn4cc[n+](C)c4)cc3)cc2)c1
> 2500 µM | c1cn(CCCCCCCCCCn2ccnc2)cn1
> 2500 µM | Brc1cccc(Cn2cc[n+](Cc3cccc(Br)c3)c2)c1
> 2500 µM | c1cn(CCCCCCCCCCCn2ccnc2)cn1
> 2500 µM | c1ccc(-c2nn(-c3ccccc3)[n+](-c3cccc4ccccc34)n2)cc1 [TETRAZOLIUM VIOLET]
> 2500 µM | c1cn(Cc2ccc(-c3ccc(Cn4ccnc4)cc3)cc2)cn1
